One test relates to MS751 cells. Put plainly: MTT cell proliferation assay, MS751. It counts as cell-based, human. The following applies: Homo sapiens, MS751, MS751 cells, read-out: MTT Assay IC50, MS751. The gist of the method:
(§1)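 Absorbance at 490 nm of solubilized formazan, produced during roughly 4 h MTT incubation, gave percent inhibition relative to negative control. Compounds spanned eight concentrations between 1 nM and 30 μM on cells plated overnight at 5,000-10,000 per well.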
In general terms: Tetrazolium assays rely on reduction of a dye to a coloured formazan, in cell work by metabolically active cells.

A further test has as its system Z138 cells. Put plainly: MTT cell proliferation assay, Z138. The class given is cell-based. The following applies: Homo sapiens, Z-138, Z138 cells, read-out: MTT Assay IC50, Z138. The gist of the method: as §1
The next test deals with 3T3 cells. The test can be described thus: MTT cell proliferation assay, 3T3. The class given is cell-based, mouse. The following applies: Mus musculus, NIH3T3, 3T3 cells, read-out: MTT Assay IC50, 3T3. The gist of the method:
as §1

The subject of another test is M24 cell line. Put plainly: MTT cell proliferation assay, M24. As to conditions: Homo sapiens, incubation approximately 64-72 hours. The class given is cell-based. The procedure: (§2) The MTT cell proliferation assay was used to study the cytotoxic properties of the compounds. The assay was performed according to the method described by Roche Molecular Biochemicals, with minor modifications. The assay is based on the cleavage of the tetrazolium salt, MTT, in the presence of an electron-coupling reagent. The water-insoluble formazan salt produced must be solubilized in an additional step. Cells grown in a 96-well tissue culture plate were incubated with the MTT solution for approximately 4 hours. After this incubation period, a water-insoluble formazan dye formed. After solubilization, the formazan dye was quantitated using a scanning multi-well spectrophotometer (ELISA reader). […] The cells were seeded at 5,000-10,000 cells in each well of 96-well plate in 100 μL of fresh culture medium and were allowed to attach overnight. The stock solutions of the compounds were diluted in 100 μL cell culture medium to obtain eight concentrations of each test compound, ranging from 1 nM to 30 μM. […] All optical densities were measured at 490 nm using a Vmax Kinetic Microplate Reader (Molecular Devices). In most cases, the assay was performed in duplicate and the results were presented as a mean percent inhibition to the negative control±SE. The following formula was used to calculate the percent of inhibition: Inhibition (%)=(1-(ODo/OD)) ×100. […]

The next test deals with U2OS cell line. Put plainly: MTT cell proliferation assay, U2OS. The class given is cell-based. As to conditions: Homo sapiens, incubation approximately 64-72 hours. The procedure:
as §2

The next test deals with MM1S cell line. Put plainly: MTT cell proliferation assay, MM1S. It counts as cell-based. As to conditions: Homo sapiens, MM1.S, incubation approximately 64-72 hours. The procedure: (§3) The MTT cell proliferation assay was used to study the cytotoxic properties of the compounds. The assay was performed according to the method described by Roche Molecular Biochemicals, with minor modifications. The assay is based on the cleavage of the tetrazolium salt, MTT, in the presence of an electron-coupling reagent. The water-insoluble formazan salt produced must be solubilized in an additional step. Cells grown in a 96-well tissue culture plate were incubated with the MTT solution for approximately 4 hours. After this incubation period, a water-insoluble formazan dye formed. After solubilization, the formazan dye was quantitated using a scanning multi-well spectrophotometer (ELISA reader). […] The cells were seeded at 5,000-10,000 cells in each well of 96-well plate in 100 μL of fresh culture medium and were allowed to attach overnight. The stock solutions of the compounds were diluted in 100 μL cell culture medium to obtain eight concentrations of each test compound, ranging from 1 nM to 30 μM. […] All optical densities were measured at 490 nm using a Vmax Kinetic Microplate Reader (Molecular Devices). In most cases, the assay was performed in duplicate and the results were presented as a mean percent inhibition to the negative control±SE. The following formula was used to calculate the percent of inhibition: Inhibition (%)=(1-(ODo/OD)) ×100.
(§4) The M24 cell line is derived from human melanoma cells. The U2OS cell line is a human osteosarcoma cell line expressing wild type p53 and Rb, but lacking p16. The MM1S cell line is a multiple myeloma cell line; the parent cell line, MM.1, was established from peripheral blood of a multiple myeloma patient who had become resistant to steroid-based therapy. The RPMI8226 cell line is derived from human B lymphocyte cells. NHDF cells are normal human dermal fibroblast cells. The MRC-5 cell line is derived from normal lung tissue of a fetus. The LN18 cell line is a human malignant glioma cell line. The DU-145 cell line is a human prostate cancer cell line. A549 cells are human adenocarcinomic human alveolar basal epithelial cells. […]

In another test the test system is RPMI8226 cell line. Put plainly: MTT cell proliferation assay, RPMI8226. The following applies: Homo sapiens, RPMI-8226, incubation approximately 64-72 hours. The class given is cell-based. The procedure: as §2
Another test concerns NHDF cells. Put plainly: MTT cell proliferation assay, NHDF. The following applies: Homo sapiens, incubation approximately 64-72 hours. It counts as cell-based. The procedure: as §2
In a further test the test system is MRC-5 cell line. Put plainly: MTT cell proliferation assay, MRC-5. The class given is cell-based. The following applies: Homo sapiens, MRC5, incubation approximately 64-72 hours. The procedure:
as §2

The next test relates to DU-145 cell line. The test can be described thus: MTT cell proliferation assay, DU-145. The class given is cell-based. As to conditions: Homo sapiens, incubation approximately 64-72 hours. The procedure: as §2
The subject of the next test is MDA-MB-231 cell line. The test can be described thus: MTT cell proliferation assay, MDA-MB-231. As to conditions: Homo sapiens, incubation approximately 64-72 hours. It counts as cell-based. The procedure:
as §2

The next test relates to MDA-MB-468 cell line. The test can be described thus: MTT cell proliferation assay, MDA-MB-468. The class given is cell-based. The following applies: Homo sapiens, incubation approximately 64-72 hours. The procedure: as §2
Another test concerns Hep G2 cells. The test can be described thus: MTT cell proliferation assay, Hep G2. It counts as cell-based. The following applies: Homo sapiens, HepG2, incubation approximately 64-72 hours. The procedure:
as §3
The M24 cell line is derived from human melanoma cells. The U2OS cell line is a human osteosarcoma cell line expressing wild type p53 and Rb, but lacking p16. The MM1S cell line is a multiple myeloma cell line; the parent cell line, MM.1, was established from peripheral blood of a multiple myeloma patient who had become resistant to steroid-based therapy. The RPMI8226 cell line is derived from human B lymphocyte cells. NHDF cells are normal human dermal fibroblast cells. The MRC-5 cell line is derived from normal lung tissue of a fetus. The LN18 cell line is a human malignant glioma cell line. The DU-145 cell line is a human prostate cancer cell line. A549 cells are human adenocarcinomic human alveolar basal epithelial cells. The MOLT4 cell line is a human acute lymphoblastic leukemia cell line. The THP1 cell line is a human leukemic monocytic cell line derived from peripheral blood. The OCIAML5 cell line is a human acute myeloid leukemia cell line. The MDA-MB-231 cell line is a human breast adenocarcinoma cell line. The MDA-MB-468 cell line is a human breast carcinoma cell line. HL-60 cells are human promyelocytic leukemia cells. Hep G2 cells are human hepatocellular carcinoma cells. HEP 3B cells are human hepatocellular carcinoma cells. The DLD-1 cell line is a colorectal adenocarcinoma cell line. The HCT-15 cell line is a human colon carcinoma cell line. The Colo-205 cell line is derived from a human adenocarcinoma of the colon. […]

A further test deals with HEP 3B cells. The test can be described thus: MTT cell proliferation assay, HEP 3B. The class given is cell-based. The following applies: Homo sapiens, Hep3B, incubation approximately 64-72 hours. The procedure:
as §3, §4

The next test concerns DLD-1 cell line. Put plainly: MTT cell proliferation assay, DLD-1. The class given is cell-based. As to conditions: Homo sapiens, incubation approximately 64-72 hours. The procedure: as §2
In a further test the test system is HCT-15 cell line. The test can be described thus: MTT cell proliferation assay, HCT-15. The class given is cell-based. As to conditions: Homo sapiens, incubation approximately 64-72 hours. The procedure: as §2
A further test relates to Colo-205 cell line. Put plainly: MTT cell proliferation assay, Colo-205. It counts as cell-based. The following applies: Homo sapiens, incubation approximately 64-72 hours. The procedure:
as §2

Another test relates to LoVo cell line. Put plainly: MTT cell proliferation assay, LoVo. The following applies: Homo sapiens, incubation approximately 64-72 hours. The class given is cell-based. The procedure:
as §2

The subject of test [1] is PAK4 interactors and downstream proteins. The test can be described thus: Immunoblots of PAK4 interactors and downstream proteins in U2OS cells. It counts as cell-based, human. As to conditions: 0.5 μM or 5 μM, 72 hours. The procedure:
Immunoblots were used to measure the effects of exemplary compounds on protein steady-state levels and phophorylation of PAK4 interactor and downstream proteins. Specifically, U2OS (osteosarcoma) cells were split and plated on day 1. After overnight attachment to the tissue culture plate, cells were treated with either DMSO (0), 37 nM, 111 nM, 333 nM, 1 μM, or 3 μM Compound 246 for 72 hours. Cells were collected, washed and lysed in RIPA buffer. After obtaining the protein concentration by BCA assay, lysates were boiled in loading buffer and run on SDS-PAGE. The gels were transferred to nitrocellulose membranes and blotted with antibodies raised against phosphor-PAK4, PAK4, phophos-beta-catenin, beta-catenin, GEF-H1, phospho-Akt, Akt, phospho-ERK1/2, ERK1/2, phospho-cofilin, cofilin, phospho-histone H3, histone H3, cyclin D1, Mcl-1, Bcl-2, p21, survivin, caspase 8, caspase 3, PARP, and beta-actin (loading control).
In another experiment, U2OS (osteosarcoma) cells were split and plated on day 1. After overnight attachment to the tissue culture plate, cells were treated with DMSO (Ct), 0.5 μM, or 5 μM of Compound 124, 369, 226, 246, or 907 for 72 hours. Cells were collected, washed and lysed in RIPA buffer. After obtaining the protein concentration by BCA assay, lysates were boiled in loading buffer and run on SDS-PAGE. The gels were transferred to nitrocellulose membranes and blotted with antibodies raised against phophos-beta-catenin, cyclin D1, PAK4, phospho-cofilin, and beta-actin (loading control).
(Immunoblotting shows a protein as a band on a membrane.)

Another test has as its system UCH-2 cell line. The test can be described thus: MTT cell proliferation assay, UCH-2. It counts as cell-based. As to conditions: UCH2, incubation approximately 64-72 hours. The procedure:
as §2

The test system of a further test is SNU-182 cell line. The test can be described thus: MTT cell proliferation assay, SNU-182. It counts as cell-based. As to conditions: Homo sapiens, incubation approximately 64-72 hours. The procedure: as §2
Where [2] appears, read: eight concentrations 1 nM to 30 μM, incubation approximately 64-72 hours.
[3] abbreviates: approximately 64-72 hours incubation.

Read-outs that look alike come from different tables or passages of the source.

As a reminder, the IC50 is the midpoint of a concentration-inhibition curve. On to `CC(O)c1ccc(-c2cc(Cl)c3c(c2)CC(CNC(=O)/C=C/c2cccnc2)O3)s1` (centres unmarked) [Compound 124], for which the IC50 was less than 100 nM with MS751 cells (setting [2]); less than 100 nM with Z138 cells (setting [2]); 100 to 5000 nM in the test on 3T3 cells (setting [2]); 100 to 5000 nM with M24 cell line; less than 100 nM in the test on U2OS cell line; less than 100 nM in the test on MM1S cell line. The IC50 was 100 to 5000 nM with RPMI8226 cell line; 100 to 5000 nM with NHDF cells; less than 100 nM in the test on MRC-5 cell line; 100 to 5000 nM in the test with DU-145 cell line; 100 to 5000 nM with MDA-MB-231 cell line; 100 to 5000 nM in the test with MDA-MB-468 cell line. Besides, the IC50 in the test with Hep G2 cells, in the test with HEP 3B cells, in the test with DLD-1 cell line, in the test on HCT-15 cell line, with Colo-205 cell line and with LoVo cell line was 100 to 5000 nM in each case. In addition, in [1], the PAK4 total protein entry is recorded as “decrease”. Besides, the “phosphorylation of PAK4 signaling proteins beta-catenin and cofilin” value in [1] is “decreases in phosphorylation”.
With `Nc1ccc(/C=C/C(=O)NCC2Cc3cc(-c4ccc(C(=O)N5CC(F)(F)C5)cc4)cc(Cl)c3O2)cn1` (centres unmarked) [Compound 226, (E)-3-(6-aminopyridin-3-yl)-N-((7-chloro-5-(4-(3,3-difluoroazetidine-1-carbonyl)phenyl)-2,3-dihydrobenzofuran-2-yl)methyl)acrylamide], the IC50 is less than 100 nM with MS751 cells (setting [3]); less than 100 nM with Z138 cells (setting [3]); 5000 to 30000 nM in the test with 3T3 cells (setting [3]); less than 100 nM in the test on Hep G2 cells; less than 100 nM in the test with HEP 3B cells; greater than 30000 nM in the test with UCH-2 cell line. In the test on SNU-182 cell line, this molecule registered an IC50 of less than 100 nM. Moreover, the PAK4 total protein entry in test [1] is listed as “decrease”. The “phosphorylation of PAK4 signaling proteins beta-catenin and cofilin” value in test [1] was “decreases in phosphorylation”.

Source of the values: patent publication US9938258B2 (Karyopharm Therapeutics Inc., priority 2012, dated 2018).
